46 molecules from patent publication US7598397B2, “Sulfonamide peri-substituted bicyclics for occlusive artery disease” (deCODE genetics ehf, priority 2004, dated 2009) can be followed below.

This assay deals with T1, prostanoid EP3 receptors (Homo sapiens, UniProt P43115).
T1 sequence (P43115 1-390): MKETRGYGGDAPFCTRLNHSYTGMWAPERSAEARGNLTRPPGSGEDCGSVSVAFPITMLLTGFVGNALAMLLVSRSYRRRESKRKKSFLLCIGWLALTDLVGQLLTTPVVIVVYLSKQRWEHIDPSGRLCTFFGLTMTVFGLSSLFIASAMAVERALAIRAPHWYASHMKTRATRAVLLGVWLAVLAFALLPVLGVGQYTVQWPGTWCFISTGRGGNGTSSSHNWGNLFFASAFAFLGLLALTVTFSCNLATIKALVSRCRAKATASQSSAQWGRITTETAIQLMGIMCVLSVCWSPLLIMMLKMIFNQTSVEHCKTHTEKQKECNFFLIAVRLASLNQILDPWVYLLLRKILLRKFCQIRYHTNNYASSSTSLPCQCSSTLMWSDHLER
In words: binding on prostanoid EP3 receptors (method of Abramovitz et al.). The conditions noted are these: read-out: Activity (EP3 receptor binding, IC50 class). The procedure:
The compounds of the invention were assayed for their binding on prostanoid EP3 receptors according to the method of Abramovitz et al. [Bioch. Biophys.
Turning to `Cn1cc(C=CC(=O)NS(=O)(=O)c2ccc(F)c(F)c2)c2c(Oc3ccc(Cl)cc3F)cccc21` [Compound P338], the IC50 was < 1 µM.
As to `CC12CCCC(C=CC(=O)NS(=O)(=O)c3cc(Cl)c(Cl)s3)=C1N(Cc1cccc(F)c1)C(=O)C2` (stereo not shown) [Compound P262], the concentration for half-maximal inhibition (IC50) was < 1 µM.
Next, `COc1cccc(CN2C(=O)COc3cccc(OCC(=O)NS(=O)(=O)c4cccs4)c32)c1` [Compound P030]: 1 to 10 µM; `O=C(C=Cc1cccc2c1N(Cc1ccc3ccccc3c1)C(=O)C2)NS(=O)(=O)c1cccs1` [Compound P217]: < 1 µM; `Cc1noc(C)c1Cn1cc(C)c2cc(F)cc(C=CC(=O)NS(=O)(=O)c3cc(F)c(F)cc3F)c21` [Compound P370]: < 1 µM.
With `CC12CCCC(C=CC(=O)NS(=O)(=O)c3cc(F)cc(F)c3)=C1N(Cc1cccc(Cl)c1Cl)C(=O)C2` (stereo not shown) [Compound P298], the IC50 is < 1 µM.
The value for `O=C(C=Cc1cccc2c1N(Cc1ccc3ccccc3c1)C(=O)C2(O)C(F)(F)F)NS(=O)(=O)c1cccs1` (stereo not shown) [Compound P104] was < 1 µM; that for `Cn1cc(/C=C/C(=O)NS(=O)(=O)c2cc(Cl)c(Cl)s2)c2c(Oc3ccc(Cl)cc3)cccc21` [Compound P311] was < 1 µM.
Next, `Cc1ccc(Sc2c[nH]c3cccc(OCC(=O)NS(=O)(=O)c4cc(Cl)c(Cl)s4)c23)c(C)c1` [Compound P165]: < 1 µM; `O=C(COc1cccc2c1N(Cc1ccc(OC(F)(F)F)cc1)C(=O)CO2)NS(=O)(=O)c1cccs1` [Compound P027]: 1 to 10 µM; `CC12CCCC(C=CC(=O)NS(=O)(=O)c3ccc(F)c(F)c3)=C1N(Cc1ccc(F)cc1)C(=O)C2` (stereo not shown) [Compound P294]: < 1 µM.
Next, `O=C(COc1cccc2[nH]cc(S(=O)(=O)c3nc[nH]n3)c12)NS(=O)(=O)c1cc(Cl)c(Cl)s1` [Compound P240]: < 1 µM; `CC12CCCC(C=CC(=O)NS(=O)(=O)c3cc(F)c(F)cc3F)=C1N(Cc1ccc(F)cc1)C(=O)C2` (stereo not shown) [Compound P300]: < 1 µM.
With `O=C(COc1cccc2c1N(Cc1ccc(Cl)cc1Cl)C(=O)CO2)NS(=O)(=O)c1cccs1` [Compound P040], the 50% inhibitory concentration (IC50) is < 1 µM.
`Cc1cn(Cc2ccccc2)c2c(/C=C/C(=O)NS(=O)(=O)c3cc(Cl)c(Cl)s3)cccc12` [Compound P122]: the IC50 is < 1 µM.
Next, `CC12CCCC(C=CC(=O)NS(=O)(=O)c3cc(Cl)c(Cl)s3)=C1N(Cc1ccc(Cl)cc1Cl)C(=O)C2` (stereo not shown) [Compound P278]: < 1 µM; `CC12CCCC(C=CC(=O)NS(=O)(=O)c3cc(F)c(F)cc3F)=C1N(Cc1cccc(Cl)c1Cl)C(=O)C2` (stereo not shown) [Compound P296]: < 1 µM.
The value for `COCc1cn(Cc2ccc(Cl)cc2Cl)c2c(C=CC(=O)NS(=O)(=O)c3cccs3)cccc12` [Compound P070] was < 1 µM; that for `CC(=O)Nc1ccc(S(=O)(=O)c2c[nH]c3cccc(OCC(=O)NS(=O)(=O)c4cc(Cl)c(Cl)s4)c23)cc1` [Compound P235] was < 1 µM.
With `CC1(Br)C(=O)N(Cc2ccc3ccccc3c2)c2c(C=CC(=O)NS(=O)(=O)c3cccs3)cccc21` (stereo not shown) [Compound P110], the IC50 was < 1 µM.
Next, `COc1cc(CN2C(=O)COc3cccc(OCC(=O)NS(=O)(=O)c4cccs4)c32)cc(OC)c1` [Compound P041]: 1 to 10 µM.
The value for `Cc1cn(Cc2ccccc2Cl)c2c(/C=C/C(=O)NS(=O)(=O)c3cccs3)cccc12` [Compound P086] was < 1 µM.
The value for `Cn1cc(C=CC(=O)NS(=O)(=O)c2ccc(F)c(F)c2)c2c(Oc3ccc(Cl)c(F)c3)cccc21` [Compound P332] was < 1 µM; that for `O=C(COc1cccc2[nH]cc(Sc3nc4ccccc4s3)c12)NS(=O)(=O)c1cc(Cl)c(Cl)s1` [Compound P182] was < 1 µM; that for `O=C(C=Cc1cnn2ccn(Cc3ccc4ccccc4c3)c12)NS(=O)(=O)c1cccs1` [Compound P034] was < 1 µM.
Turning to `Cc1cn(Cc2ccccc2)c2c(/C=C/C(=O)NS(=O)(=O)c3cccs3)cccc12` [Compound P084], the 50% inhibitory concentration (IC50) is < 1 µM.
Next, `Cn1nc(NS(=O)(=O)c2cc(Cl)c(Cl)s2)c2c(Oc3ccc4ccccc4c3)cccc21` [Compound P284, 4,5-Dichloro-thiophene-2-sulfonic acid [1-methyl-4-(naphthalen-2-yloxy)-1H-indazol-3-yl]-amide]: 1 to 10 µM; `Cc1cn(Cc2cn3ccccc3n2)c2c(C=CC(=O)NS(=O)(=O)c3ccccc3F)cc(F)cc12` [Compound P409]: < 1 µM; `O=C(COc1cccc2[nH]cc(Sc3nc4ccccc4o3)c12)NS(=O)(=O)c1cc(Cl)c(Cl)s1` [Compound P181]: < 1 µM.
The value for `Cc1ccc(C)c(Cn2c(=O)oc3cccc(OCC(=O)NS(=O)(=O)c4cccs4)c32)c1` [Compound P053] was 1 to 10 µM; that for `Cn1cc(/C=C/C(=O)NS(=O)(=O)c2cc(Cl)c(Cl)s2)c2c(Oc3ccc(Cl)c(F)c3)cccc21` [Compound P333] was < 1 µM.
For the molecule `CC1(O)C(=O)N(Cc2ccc3ccccc3c2)c2c(C=CC(=O)NS(=O)(=O)c3cccs3)cccc21` (stereo not shown) [Compound P111], the concentration for half-maximal inhibition (IC50) was < 1 µM.
The value for `Cc1nnc(Sc2c[nH]c3cccc(OCC(=O)NS(=O)(=O)c4cc(Cl)c(Cl)s4)c23)s1` [Compound P230] was < 1 µM.
Next, `Cn1cc(C=CC(=O)NS(=O)(=O)c2cccc(Cl)c2)c2c(Oc3ccc4ccccc4c3)cccc21` [Compound P353]: < 1 µM.
`Cc1cn(CCC(=O)NS(=O)(=O)c2ccc(F)c(F)c2)c2c(Oc3ccc(Cl)cc3Cl)cc(F)cc12` [Compound P383]: the IC50 was < 1 µM.
The value for `O=C(COc1cccc2oc(=O)n(Cc3ccc(Cl)cc3Cl)c12)NS(=O)(=O)c1cccs1` [Compound P052] was < 1 µM; that for `O=C(COc1cccc2[nH]cc(Sc3ccc4ccccc4c3)c12)NS(=O)(=O)c1cccc(Cl)c1` [Compound P184] was < 1 µM; that for `Cc1cn(Cc2ccc(F)cc2)c2c(C=CC(=O)NS(=O)(=O)c3cc(F)cc(F)c3)cc(F)cc12` [Compound P316] was < 1 µM.
The value for `Cc1cn(Cc2cc3c(cc2Cl)OCO3)c2c(/C=C/C(=O)NS(=O)(=O)c3cccs3)cccc12` [Compound P089] was < 1 µM.
`Cn1cc(C=CC(=O)NS(=O)(=O)c2ccccc2F)c2c(Oc3ccc4ccccc4c3)cccc21` [Compound P364]: the IC50 is < 1 µM.
For the molecule `Cn1cc(C=CC(=O)NS(=O)(=O)c2ccc(F)c(F)c2)c2c(Oc3cnc4ccccc4n3)cccc21` [Compound P393], the IC50 was < 1 µM.
Next, `Cc1cn(Cc2ccc(F)c(F)c2)c2c(/C=C/C(=O)NS(=O)(=O)c3cccs3)cccc12` [Compound P103]: < 1 µM; `CC12CCCC(C=CC(=O)NS(=O)(=O)c3cc(F)cc(F)c3)=C1N(Cc1ccc(Cl)cc1Cl)C(=O)C2` (stereo not shown) [Compound P282]: < 1 µM.
As for `Cn1cc(C=CC(=O)NS(=O)(=O)c2cc(F)c(F)cc2F)c2c(Oc3ccc(F)cc3Cl)cccc21` [Compound P340], the IC50 is < 1 µM.
Next, `Cc1cn(Cc2ccc(Cl)cc2Cl)c2c(C=CC(=O)NS(=O)(=O)c3cc(Cl)c(Cl)s3)cccc12` [Compound P079]: < 1 µM; `CN1C(=O)C(Nc2ccc3ccccc3c2)c2c(C=CC(=O)NS(=O)(=O)c3cc(Cl)c(Cl)s3)cccc21` (stereo not shown) [Compound P242]: < 1 µM.

The term IC50 denotes the concentration needed to halve the response being measured.
